According to patent publication US12187672B2, “1,2-diacylglycerol compound, preparation method therefor, and immunomodulator containing same as active ingredient” (ENZYCHEM LIFESCIENCES CORPORATION, priority 2018, dated 2025):

How the values were obtained:
IL-4 = assay: PKC activator-induced IL-4 secretion reduction in EL-4 cells (ELISA); type: cell-based, mouse; details: sample 100 μg/ml 2 h, then PKC activator 18 h, Table 11
Description: In DMEM (Dulbecco Modified Eagle Medium, Hyclone, Thermo Scientific) medium to which 10% Fetal Bovine Serum was added, EL-4 cells, a mouse lymphoma family, were subcultured at a concentration of 1×10^5 cells/ml, and culture was conducted in a 5% CO2 humidified incubator at 37° C. The cultured EL-4 cells were inoculated into a 48 well plate by 5×10^4 cells/ml and stabilized for 30 hours. Then, the culture solution was treated with a glycerol derivative compounds of the type shown in Table 11 and 12 below for 2 hours. Thereafter, it were treated with 0.5 μg/ml of PKC activator (p10, some kind of PMA) of a cell stimulator, and subsequent further incubation were conducted for 18 hours. Thereafter 0.5 ml of the culture supernatant was collected for each well and centrifuged (at 3000 rpm, 5 minutes) to recover the supernatant. The IL-4 level in the recovered supernatant was measured according to the manual provided by the Mouse IL-4 ELISA set (BD Biosciences). The day before ELISA was carried out, the IL-4 capture antibody was diluted in phosphate buffered saline, coated on a microwell, and then stored at 4° C. overnight. Each well was washed three times with a buffer solution and then blocked with 2% Bovine Serum Albumin (BSA) for 1 hour at room temperature. After washing with buffer solution three times, 100 μl of sample was dispensed into each well and left at room temperature for 2 hours. Detection antibody which was washed 3 times with washing buffer solution and diluted was dispensed into each well and allowed to react at room temperature for 1 hour and left at room temperature for 1 hour. Thereafter, the secondary HRP conjugated antibody was reacted at room temperature for 30 minutes, washed three times with buffer solution, and treated with 50 μl of stop solution for each well, and then the optical density was measured at 450 nm with an ELISA microplate leader. The results of the measured expression reduction rate ([…]) were shown in Table 11, Table 12, FIG. 11 and FIG. 12 below.

STAT3 = assay: IL-6-induced STAT3 activity, SEAP expression in HEK-Blue IL-6 cells; type: cell-based; details: HEK-Blue IL-6 cells; for STAT3 activity_SEAP expression(%) (average ± deviation): sample 100 μg/ml 1 h, then IL-6 5 ng/ml 24 h, negative control = 100; for decrease of STAT3 activity compared to the IL-6 cytokine-treated group: 100 μg/ml
Description: HEK-Blue™ IL-6 cells were used to confirm STAT3 activity by STAT3-induced SEAP (secreted embryonic alkaline phosphatase) expression. In DMEM (Hyclone, Thermo Scientific) medium to which 10% Fetal Bovine Serum was added, HEK-Blue™ IL-6 cells were cultured at a concentration of 1×10^5 cells/ml, and maintained in a 5% CO2 humidified incubator at 37° C. The cultured HEK-Blue™ IL-6 cells were inoculated by 1×10^5 cells/ml. Then, the culture solution was treated with a glycerol derivative compounds of the type shown in Table 4 below for 1 hour and then IL-6 (5 ng/ml) was further incubated for 24 hours for STAT3 activity. Thereafter, the culture supernatant was collected for each well and centrifuged (at 3000 rpm, 5 minutes) to recover the supernatant. The SEAP expression level in the recovered supernatant was mixed with Quanti blue reagent and the supernatant at a ratio of 1:10 and left at 37° C. for about 30 minutes. Then, the SEAP concentration was confirmed at 650 nm wavelength using a spectrophotometer, and the results (STAT3 activity inhibitory ability) thereof are shown in Table 4 and FIG. 3 below.

IL-6 = assay: LPS-induced IL-6 secretion reduction in RAW264.7 cells (ELISA); type: cell-based, mouse; details: sample 100 μg/ml 1 h, then LPS 1 μg/ml 24 h, Table 2
Description: In DMEM (Dulbecco Modified Eagle Medium, Hyclone, Thermo Scientific) medium to which 10% Fetal Bovine Serum was added, RAW264.7 cells, a mouse macrophage family, were suspended at a concentration of 1×10^5 cells/ml, and culture was conducted in a 5% CO2 humidified incubator at 37° C. The cultured RAW264.7 cells were inoculated into a 48 well plate by 5×10^4 cells/ml and stabilized for 15 hours. Then, the culture solution was treated with a glycerol derivative compounds of the type shown in Table 2 and 3 below for 1 hour and then was treated with 1 μg/ml of Lipopolysaccaride (LPS) of a cell stimulator, and subsequent further incubation was conducted for 24 hours. Thereafter 0.5 ml of the culture supernatant was collected for each well and centrifuged (at 3000 rpm, 5 minutes) to recover the supernatant. The IL-6 level in the recovered supernatant was measured according to the manual provided by the Mouse IL-6 ELISA set (BD Biosciences). The day before ELISA was carried out, the IL-6 capture antibody was diluted in phosphate buffered saline, coated on a microwell, and then stored at 4° C. overnight. Each well was washed three times with a buffer solution and then blocked with 2% Bovine Serum Albumin (BSA) for 1 hour at room temperature. After washing with buffer solution three times, […] of sample was dispensed into each well and left at room temperature for 2 hours. Detection antibody which was washed 3 times with washing buffer solution and diluted was dispensed into each well and allowed to react at room temperature for 1 hour and left at room temperature for 1 hour. Thereafter, the secondary HRP conjugated antibody was reacted at room temperature for 30 minutes, washed three times with a buffer solution, and treated with 50 μl of stop solution for each well, and then the optical density was measured at 450 nm with an ELISA microplate leader. The results of the IL-6 expression reduction rate (IL-6 concentration) are shown in Table 2, Table 3, FIG. 1 and FIG. 2 below.

STAT6 = assay: IL-4-induced STAT6 activity, pGL4-STAT6 luciferase reporter in A549 cells; type: cell-based; details: sample 100 μg/ml 1 h, then IL-4 (2 ng/ml) 20 h, Table 9
Description: In DMEM (Dulbecco Modified Eagle Medium, Hyclone, Thermo Scientific) medium to which 10% Fetal Bovine Serum was added, A549 cells were subcultured at a concentration of 1×10^5 cells/ml, and culture was conducted in a 5% CO2 humidified incubator at 37° C. The cultured A549 cells were inoculated into a 48 well plate by 1×10^5 cells/ml and stabilized for 18 hours. Thereafter, pGL4-STAT6 reporter vector containing a STAT6 binding promoter portion was mixed with Attractene to induce complex formation at room temperature for 15 minutes. This complex was treated with the cells and then further incubated for 24 hours. Thereafter, the culture solution was treated with a glycerol derivative compounds of the type shown in Table 9 and 10 below for 1 hour, and then IL-4 (2 ng/ml or 10 ng/ml) was further incubated for 20 hours for STAT6 activity. Thereafter, the culture supernatant was removed for each well, and the remaining cells were lysed with a cell lysis buffer, and then cell lysate was recovered. 90 μl of luciferase reagent was mixed with 10 μl of the recovered cell lysate, and the degree of fluorescence was confirmed using a luminometer. The results are shown in Table 9, Table 10, FIG. 9 and FIG. 10 below.

CXCL8 (IL-8) = CXCL8 (IL-8) expression reduction in Gemcitabine-treated THP-1 cells (ELISA); type: cell-based, human; details: THP-1 cells; for reduction of CXCL8 (IL-8) expression/secretion: Gemcitabine-treated, 100 μg/ml; for CXCL8 [IL-8] concentration (average ± deviation): sample 100 μg/ml 1 h, then Gemcitabine 2 μg/ml 24 h
Description: In RPMI (Hyclone, Thermo Scientific) medium to which 10% Fetal Bovine Serum was added, THP-1 cells, a human macrophage family, were suspended at a concentration of 1×10^5 cells/ml, and culture was conducted in a 5% CO2 humidified incubator at 37° C. The cultured THP-1 cells were inoculated into a 12 well plate by 1×10^6 cells/ml and stabilized for 30 minutes. Then, the culture solution was treated with a glycerol derivative compounds of the type shown in Table 6 below for 1 hour and then was treated with Gemcitabine (2 μg/ml) of a cell stimulator, and subsequent further incubation was conducted for 24 hours. Thereafter 1.5 ml of the culture supernatant was collected for each well and centrifuged (at 3000 rpm, 5 minutes) to recover the supernatant. The CXCL8 (IL-8) level in the recovered supernatant was measured according to the manual provided by the human IL-8 ELISA set (BD Biosciences). The day before ELISA was carried out, the IL-8 capture antibody was diluted in phosphate buffered saline, coated on a microwell, and then stored at 4° C. overnight. Each well was washed three times with a buffer solution and then blocked with 2% Bovine Serum Albumin (BSA) for 1 hour at room temperature. After washing with washing buffer solution three times, 100 μl of sample was dispensed into each well and left at room temperature for 2 hours. Detection antibody which was washed 3 times with washing buffer and diluted was dispensed into each well and allowed to react at room temperature for 1 hour and left at room temperature for 1 hour. Thereafter, the secondary HRP conjugated antibody was reacted at room temperature for 30 minutes, washed three times with a washing buffer, and treated with 50 μl of stop solution for each well, and then the optical density was measured at 450 nm with an ELISA microplate leader.

HL-60 cells = assay: Migration of HL-60 cell line toward THP-1 culture supernatant (transmigration assay); type: cell-based, human; details: supernatant of THP-1 cells treated with sample 100 μg/ml 1 h, then Gemcitabine 2 μg/ml 24 h
Description: In RPMI (Hyclone, Thermo Scientific) medium to which 10% Fetal Bovine Serum was added, THP-1 cells, a human macrophage family, were subcultured at a concentration of 1×10^5 cells/ml, and culture was conducted in a 5% CO2 humidified incubator at 37° C. In order to prepare the THP-1 cell culture solution to be treated in the lower well during the transmigration assay, first, the cultured THP-1 cells were inoculated into a 12 well plate by 1×10^6 cells/ml and stabilized for 30 minutes. Then, the culture solution was treated with a glycerol derivative compounds of the type shown in Table 7 below for 1 hour and then was treated with Gemcitabine (2 μg/ml) of a cell stimulator, and subsequent further incubation was conducted for 24 hours. Thereafter 1.5 ml of the culture supernatant was collected for each well and centrifuged (at 3000 rpm, 5 minutes) to recover the supernatant. The CXCL8 (IL-8) level in the recovered supernatant was measured according to the manual provided by Cultrex 96 well Laminin Cell Invasion assay. The day before Transmigration assay was carried out, a 1× Lamin I solution was treated in the upper Invasion Chamber and coated. Thereafter, in RPMI (Hyclone, Thermo Scientific) medium to which 10% Fetal Bovine Serum was added, the cultured HL-60 cells were despensed of 5×10^4 cells/chamber, and 150 μl of the THP-1 culture supernatant prepared in advance was added to the lower chamber. Thereafter the upper chamber was removed, and the cells were attached to the bottom of the lower chamber by a centrifuge, and then the supernatant was removed. Cell dissociation/Calcein-AM solution was added and reacted for 1 hour. Then, the value obtained using a fluorescence spectroscopy was calculated by converting the number of cells.

| Structure (SMILES) | IL-4 concentration (average ± deviation) (IL-4) [pg/µL] | STAT3 activity_SEAP expression(%) (average ± deviation) (STAT3) | IL-6 concentration (average ± deviation) (IL-6) [µg/mL] | STAT6 activity_Luciferase activity (average ± deviation) (STAT6) | reduction of CXCL8 (IL-8) expression/secretion (CXCL8 (IL-8)) | CXCL8 [IL-8] concentration (average ± deviation) (CXCL8 (IL-8)) [pg/µL] | decrease of STAT3 activity compared to the IL-6 cytokine-treated group (STAT3) | Number of HL-60 cells migrated through Transwell (HL-60 cells) [Cell Number] |
| --- | --- | --- | --- | --- | --- | --- | --- | --- |
| CCCCC/C=C\C/C=C\CCCCCCCC(=O)OC(COC(=O)CN)COC(=O)CCCCCCCCCCCCCCC (centres unmarked) [EC_A57] | 745.6 ± 8.35 | 243.0 ± 29.5 | 0.120 ± 0.002 |  |  |  |  |  |
| CCCCC/C=C\C/C=C\CCCCCCCC(=O)OC(COC(=O)CCCC)COC(=O)CCCCCCCCCCCCCCC (centres unmarked) [EC_A18] |  | 166.2 ± 29.6 | 0.147 ± 0.003 | 1189.2 ± 174.7 | about 20% | 84.0 ± 1.8 | about 25% | 9891.6 |
| CCCCC/C=C\C/C=C\CCCCCCCC(=O)OC(COCCC)COC(=O)CCCCCCCCCCCCCCC (centres unmarked) [EC_A15] |  | 232.0 ± 50.4 | 0.125 ± 0.003 | 707.5 ± 51.3 | about 20% | 73.8 ± 0.0 |  | 28884.8 |
| CCCCC/C=C\C/C=C\CCCCCCCC(=O)OC(COC(=O)CCC)COC(=O)CCCCCCCCCCCCCCC (centres unmarked) [EC_A17] |  | 185.4 ± 19.3 | 0.154 ± 0.001 | 476.2 ±113.4 |  | 110 ± 0.2 | about 25% | 30692.8 |
| CCCCC/C=C\C/C=C\CCCCCCCC(=O)OC(COCC)COC(=O)CCCCCCCCCCCCCCC (centres unmarked) [EC_A14] |  | 185.0 ± 30.0 | 0.277 ± 0.002 | 539.2 ± 40.3 |  |  |  |  |
| CCCCC/C=C\C/C=C\CCCCCCCC(=O)OC(COC(=O)CCCCCCCCCCCCCCC)COC(=O)C(C)(C)C (centres unmarked) [EC_A22] |  | 169.5 ± 10.5 |  | 645.5 ± 111.4 |  |  | about 25% | 1181.1 |
| CCCCC/C=C\C/C=C\CCCCCCCC(=O)OC(COC(=O)CCCCCCCCCCCCCCC)COC(=O)C(C)C (centres unmarked) [EC_A19] |  | 162.9 ± 33.2 | 0.204 ± 0.014 | 898.7 ± 115.9 |  | 277.9 ± 3.1 |  | 14882.8 |
| CCCCC/C=C\C/C=C\CCCCCCCC(=O)OC(COC(=O)CCCCCCCCCCCCCCC)COC(=O)C(C)CC (centres unmarked) [EC_A20] | 194.2 ± 47.5 | 196.7 ± 35.1 | 0.055 ± 0.001 | 609.5 ± 197.0 |  |  |  |  |
